Our source for the pKa values is patent EP0236542B1, “Novel organic phosphinic acid compounds” (CYANAMID CANADA INC., priority 1980, dated 1982).

Like-named read-outs stand apart in the source and are kept apart here.

This data set is described as follows: pKa determination in 75% isopropanol. Format: physicochemical. The note with it: product as isolated (assay about 85-88% phosphinic acid).

As to `CC(CC(C)(C)C)CP(=O)(O)C1CCCCC1` (centres unmarked) [2,4,4 -trimethylpentyl, cyclohexylphosphinic acid], the pKa – broadly, the pH at which an ionisable group is half protonated – (read-out: pKa) came to 6.04.
As to `CC(CC(C)(C)C)CP(=O)(O)CC(C)CC(C)(C)C` (centres unmarked) [di-2,4,4 -trimethylpentylphosphinic acid], the pKa was found to be 6.03 ± 0.05.
